The text below walks through data of publication doi:10.1101/261990v1 (biorxiv, 2018).

SMILES strings stand for the structures.

Test [1] concerns the target T1, MGIC (Myoinhibitory peptide-Gated Ion Channel; ENaC5) (Platynereis dumerilii, UniProt A0A2S1B6I3).
T1 sequence (A0A2S1B6I3 1-589): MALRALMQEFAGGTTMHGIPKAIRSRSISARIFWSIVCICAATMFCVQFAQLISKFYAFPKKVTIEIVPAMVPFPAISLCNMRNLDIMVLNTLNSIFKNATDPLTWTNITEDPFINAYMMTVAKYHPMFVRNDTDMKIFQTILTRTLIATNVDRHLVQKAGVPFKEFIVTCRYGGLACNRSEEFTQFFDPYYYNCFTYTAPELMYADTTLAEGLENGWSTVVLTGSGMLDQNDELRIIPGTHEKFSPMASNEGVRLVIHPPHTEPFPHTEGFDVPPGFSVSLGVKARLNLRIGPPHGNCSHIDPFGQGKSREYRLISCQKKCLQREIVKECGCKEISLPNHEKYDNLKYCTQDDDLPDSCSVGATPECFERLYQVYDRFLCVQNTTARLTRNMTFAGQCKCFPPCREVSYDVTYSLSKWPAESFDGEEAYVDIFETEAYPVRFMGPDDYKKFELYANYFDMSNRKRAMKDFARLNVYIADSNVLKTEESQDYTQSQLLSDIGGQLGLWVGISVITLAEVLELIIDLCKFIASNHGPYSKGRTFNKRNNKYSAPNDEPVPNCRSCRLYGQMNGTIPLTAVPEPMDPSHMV
In words: two-electrode voltage clamp, Xenopus oocytes. It counts as cell-based. The note with it: read-out: % of control current at 50 μM.

The target of test [2] is T1, MGIC (Myoinhibitory peptide-Gated Ion Channel; ENaC5). In words: two-electrode voltage clamp, Xenopus oocytes. It counts as cell-based.

Regarding `NC(=NC(=O)c1nc(Cl)c(N)nc1N)Nc1ccccc1` [phenamil], in test [1], the remaining activity at 50 µM stood at 45 ± 4%.

As a reminder, the IC50 is the concentration that gives 50% inhibition. Low readings indicate greater potency, high ones weaker potency. Consider `N=C(N)NC(=O)c1nc(Cl)c(N)nc1N` [amiloride], for which the half-inhibitory concentration (IC50) in test [2] was determined as 13 ± 2 µM. For the compound `N=C(N)c1ccc(/N=N/Nc2ccc(C(=N)N)cc2)cc1` [diminazene], 0.73 ± 0.16 µM corresponded to half-maximal inhibition in test [2] (IC50). Turning to `NC(=NC(=O)c1nc(Cl)c(N)nc1N)NCc1ccccc1` [benzamil], the remaining activity at 50 µM in test [1] is 74 ± 3%.
